Laboratory results as given in patent US11168287B2, “Anti-adherent compositions and methods of inhibiting the adherence of microbes to a surface” (Kimberly-Clark Worldwide, Inc., priority 2016, dated 2021).

Assays:
MS2 = assay: High Throughput Test to Quantify the Attachment of Phage to a Surface, RNA virus MS2; conditions: for MS2 Percent Reduct. (%) / MS2 Log R (PFU/mL) compared to growth controls: pegs coated with compound in 5% glycerin and QS water, Con. Wt. %: #1,4,5,6 = 5, #2,3 = 2, #7,8,9 = 100, 1 hour phage contact; for MS2 Log R (PFU/mL) compared to growth controls: positive = inhibits attachment; for Effect against RNA viruses (MS2), in words: positive logarithmic reduction at statistically significant level = anti-adherent
Description: (§1) The anti-adherent compositions that inhibit the attachment of RNA and/or DNA viruses to a surface including compounds serving as anti-adherent agents against RNA and DNA viruses were tested against RNA and DNA viruses via the High Throughput Test to Quantify the Attachment of Phage to a Surface, as discussed in detail below. Tables 2 and 3 below show the variety of compounds that were tested as agents in a composition, as well as the results that related to the percent reduction in viruses and the Logarithmic Reduction compared to growth controls. As will be discussed in further detail below in the discussion regarding the High Throughput Test to Quantify the Attachment of Phage to a Surface, a positive logarithmic reduction in viruses equates to anti-adherent properties (e.g., inhibits attachment), and a negative logarithmic reduction in viruses equates to adherent properties (e.g., increases attachment).
The RNA virus that the compositions were tested against for attachment behaviors was MS2. Bacteriophage are commonly utilized as surrogates of mammalian viruses in both medical and virology applications. MS2 phage is commonly utilized as a viral surrogate because of its size, morphology, environmental stability, non-human infectivity, and the ability for use in high throughput assays. Additionally, MS2 is commonly used as a surrogate to study the spread of human Norovirus (See, Tung-Thompson, et al, PLoS One, 2015, 10(8): e0134277, Dawson D J, et al, J App Micro, 2005, 98: 203-209, Jones, et al, J Hosp Infect, 1991, 17:279-85). The use of MS2 phage in hand sanitizer studies makes it an ideal surrogate to study the interaction of personal care products and viral attachment. It is believed that compositions including the adherent agents noted above would act in a substantially similar behavior to other RNA viruses as they did against MS2.
(§2) 1.5 Phage (MS2 and PhiX 174) Enumeration: • 1.5.1 Phage is prepared for use from the stock by diluting 1:1 in BPB. • 1.5.2 Spot Plate Method: • 1.5.2.1 A cell dilution of ˜10^6 CFU/mL of E. coli (E. coli K12 is used for MS2 phage and E. coli C is used for PhiX 174) is prepared from the prepared washed broth culture by diluting in sterile BPB. • 1.5.2.2 An inoculum check is performed on the bacterial dilution in triplicate. • 1.5.2.3 In a 96 well plate, columns 1-12 are filled with 180 μL of the 10^6 CFU/ml E. coli suspension in BPB • 1.5.2.4 20 μL of the samples to be diluted is added in column 1. • 1.5.2.5 10-fold (10×Dilution) in BPB is performed from 10^1-10^12 by moving 20 μL from column 1 to column 2 and mixing. This is repeated, moving down the columns until column 12. • 1.5.2.6 20 μL (or 10 if agar permits) is spot plated on a large labelled OSA plate (spot plate every second column to avoid cross merging of spot plated phages. • 1.5.2.7 Plates are inverted & incubated for 24 h at 37° C. • 1.5.2.8 After 24 h the number of PFU is counted.
(§3) • 1.6.1 Preparation of compounds and coating compounds onto MBEC plate lid • 1.6.2 Using a positive displacement pipette aseptically add 200 μL of compounds to be tested to a sterile 96-well microplate according to the plate layout described below. • 1.6.3 Add 200 μL of each code to the appropriate well for sterility controls. • 1.6.4 Place the MBEC plate lid, peg side down into the 96-well microplate containing the test compound solutions. • 1.6.5 Allow the plate to sit at room temperature (25±3° C.) for 2 hrs. • 1.6.6 Remove the MBEC plate lid and allow the lid to dry at room temperature (25±3° C.) overnight in a laminar flow hood by spacing the MBEC plate lid from the MBEC plate trough with two 10 μL disposable loops. […]

E. coli ATCC 11229 = assay: High Throughput Attachment Test Method (bacterial attachment to MBEC pegs), E. coli; assay type: cell-based, Escherichia coli; conditions: pegs coated with compound in 5% glycerin and QS water; Con. Wt. %: #1,4,5,6 = 5; #2,3 = 2; #7,8,9 = 100; 15 min bacterial challenge
Description: (§4) Anti-adherent compositions including anti-adherent agents as discussed herein were tested against bacteria using the High Throughput Attachment Test Method. The High Throughput Attachment Test Method is discussed in further detail below. The anti-adherent compositions including the anti-adherent agents were tested against Gram-positive Staphylococcus aureus, and Gram-negative Escherichia coll. The pH of the compositions for this testing between 3 to 10 pH, or about 4 to about 8 pH.
(§5) This test method specifies the operational parameters required to grow and or prevent the formation of bacterial attachment using a high throughput screening assay. The assay device consists of a plastic lid with ninety-six (96) pegs and a corresponding receiver plate with ninety-six (96) individual wells that have a maximum 200 μL working volume. Biofilm is established on the pegs under static batch conditions (i.e., no flow of nutrients into or out of an individual well).
(§6) 6.1.1 E. coli ATCC 11229 and S. aureus ATCC 6538 are the organisms used in this test.
(§7) 6.1.5 Incubate flask at 35±2° C. and 175±10 rpm for 16 to 18 hours (E. coli and S. aureus). Viable bacterial density should be 10^9 CFU/mL and should be checked by serial dilution and plating.
(§8) 6.1.6 Pipette 10 mL from the incubation flask of E. coli and S. aureus into a 50 mL conical tube and spin down at 5 minutes at 4,000×g. Then remove supernatant and Resuspend in 10 mL sterile PBS. Approximate cell density should be 10^7-10^9 CFU/mL. Vortex the sample for approximately 30 seconds to achieve a homogeneous distribution of cells.
(§9) 6.2.1.1.1 Using a positive displacement pipette aseptically add 200 μL of compounds and control to be tested to a sterile 96-well microplate according to the plate layout of Table 4 below.
(§10) 6.2.1.1.3 Place the MBEC plate lid, peg side down into the 96-well microplate containing the test compound solutions.
(§11) 6.2.1.1.4 Allow the plate to sit at room temperature (25±3° C.) for 2 hours.
(§12) 6.2.1.1.5 Remove the MBEC plate lid and allow the lid to dry at room temperature (25±3° C.) overnight in a laminar flow hood. […]

S. aureus ATCC 6538 = assay: High Throughput Attachment Test Method (bacterial attachment to MBEC pegs), S. aureus; assay type: cell-based, Staphylococcus aureus; conditions: pegs coated with compound in 5% glycerin and QS water; Con. Wt. %: #1,4,5,6 = 5; #2,3 = 2; #7,8,9 = 100; 15 min bacterial challenge
Description: as §4, §5, §6, §7, §8, §9, §10, §11, §12

Phi X 174 = assay: High Throughput Test to Quantify the Attachment of Phage to a Surface, DNA virus Phi X 174; parameters: species or system Phi X 174 bacteriophage; conditions: for Phi X 174 Percent Reduct. (%) / Phi X 174 Log. R (PFU/mL) compared to growth controls: pegs coated with compound in 5% glycerin and QS water, Con. Wt. %: #1,4,5,6 = 5, #2,3 = 2, #7,8,9 = 100, 1 hour phage contact; for Phi X 174 Log. R (PFU/mL) compared to growth controls: positive = inhibits attachment; for Effect against DNA viruses (Phi X 174), in words: positive logarithmic reduction at statistically significant level = anti-adherent
Description: as §1
The DNA virus that the compositions were tested against for attachment behaviors was Phi X 174. Bacteriophage are commonly utilized as surrogates of mammalian viruses in both medical and virology applications. Phi X 174 is commonly utilized as a viral surrogate because of its size, morphology, environmental stability, and non-human infectivity, and the ability for use in high throughput assays. Phi X174 has been previously been used to study barrier efficacy, making it an ideal surrogate to study attachment to a surface (See, Haman and Nelson, Am J Infect Control, 1993, 21:289-96, O'Connell, et al, Clin Microb Infect, 2004, 10:322-6, ASTM F1671/F1671M-13, Standard Test Method for Resistance of Materials Used in Protective Clothing to Penetration by Blood-Borne Pathogens Using Phi X174 Bacteriophage Penetration as a Test System). Thus, it is well accepted by those of ordinary skill in the art that Phi X 174 serves as a surrogate for other DNA viruses, and the compositions including the adherent agents noted above would act in a substantially similar behavior to other DNA viruses as they did against Phi X 174.
as §2, §3

Compound | MS2 Percent Reduct. (%) (MS2) | MS2 Log R (PFU/mL) compared to growth controls (MS2) [PFU/mL] | Effect against RNA viruses (MS2), in words (MS2) | Ratio of E. coli growth on treated pegs to untreated pegs (%) (E. coli ATCC 11229) | Ratio of S. aureus growth on treated pegs to untreated pegs (%) (S. aureus ATCC 6538) | Phi X 174 Percent Reduct. (%) (Phi X 174) | Phi X 174 Log. R (PFU/mL) compared to growth controls (Phi X 174) [PFU/mL] | Effect against DNA viruses (Phi X 174), in words (Phi X 174)
CCCCCCCCCCCCCCCCCC(=O)OCC(CC)CCCC (stereo not shown) [Compound 7, Ethylhexyl Stearate] | 87.46 | 0.90 | anti-adherent | 48.4 | 68.6 | 98.58 | 1.85 | anti-adherent
CCCCC(CC)COC(=O)c1ccccc1O (stereo not shown) [Compound 8, Ethylhexyl Salicylate] | 85.40 | 0.84 |  | 111.1 | 75.4 | 91.45 | 1.07 | 
CCCCC(CC)COC(=O)C(C#N)=C(c1ccccc1)c1ccccc1 (stereo not shown) [Compound 9, Octocrylene] | −30.27 | −0.11 | neutral | 114.1 | 81.9 | 93.44 | 1.18 | anti-adherent
